Molecules are shown by their SMILES.

Experiment [1] relates to experimental autoimmune encephalomyelitis (EAE) rats model. In words: Nervous function damage in EAE rats model. Type of experiment: in vivo, Lewis rats. Particulars: peak of attack, positive control drug, dose not given. The protocol: (§1) Preparation of rat model and administration: in this experiment, the preparation of EAE rat model was performed by multipoint immunizing female Lewis rats subcutaneously at tail root with a homogenate of spinal cord and cerebral gray matter of Guinea pig as well as complete Freund's adjuvant after emulsification. They were intragastrically administered with a composition of morroniside and loganin for 3 weeks.
Nervous function test method: the ethological changes of rats were observed by two experimenters using blind method every day. Scoring standard: 0 score, absence of symptom; 1 score, decrease of tail tension, visible evident slight gait awkward; 2 score, double hind limbs weak, walk difficult; 3 score, double hind limbs paralysis; 4 score, double hind limbs paralysis and fore limbs weak; 5 score, four limbs paralysis; 6 score, near death or died.

A short description of experiment [2]: Body weight drop in EAE mice model. The experiment is classed as in vivo, C57BL/6J mice. Particulars: peak of attack, positive control drug, dose not given. How it is done:
(§2) Preparation of mice model and administration: experimental autoimmune encephalomyelitis (EAE) mice model is an important tool for studying various human nervous system demyelinating diseases. In the present experiment, the preparation of EAE mice model was performed by immunizing female C57BL/6J mice with myelin sheath oligodendroglial cell surface glycoprotein MOG35-55. That is, the mice were subcutaneously injected at dorsal part of spinal column with 0.2 mL of MOG35-55 antigen elixir, and 0.2 ml of bordetella pertussis solution was intraperitoneally injected at the time of immunization injection and 48 h thereafter, respectively. The composition of morroniside and loganin was intragastrically administered after the last injection of bordetella pertussis solution, for consecutive 3 weeks.
Experimental method: the methods for modeling and administration were the same of Experiment 1. The body weight changes of mice were recorded every day.

In experiment [3] the test system is spinal cord tissues of EAE mice model. In words: Inflammatory cell infiltration in spinal cord tissues of EAE mice model (HE staining). The experiment is classed as in vivo. To be noted: day 29, positive control drug, dose not given. The protocol: as §2, with “The composition of morroniside and loganin was intragastrically administered after the last injection of bordetella pertussis solution, for consecutive 3 weeks.” left out
Experimental method: the mice were anesthetized with 10% chloral hydrate on the 29th day of experiment, fixed by perfusion of 4% paraformaldehyde, spinal cord tissues were taken for making paraffin sections, section thickness 5 μm. Stained with HE, observed under microscope, and scored according to the following standard: 0 score, absence of cell infiltration; 1 score, spinal meninge cell infiltration; 2 score, 1 to 4 small ranges of cell infiltration around vessels; 3 score, 5 or more small ranges of cell infiltration around vessels, or one or more accumulatively substantial large range of cell infiltration; 4 score, a large number of cell infiltration ranges accumulatively existing in 20% or more of white matter regions.

Experiment [4] is described as follows: Body weight drop in EAE rat model. Type of experiment: in vivo, Lewis rats. To be noted: EAE rats, peak of attack; positive control drug, dose not given. The protocol:
as §1
Experimental method: the methods for modeling and administration were the same of Experiment 7. The body weight changes of rats were recorded every day.

The test system of another experiment is IL-1. In words: Serum IL-1 content in EAE mice model (ELISA). Type of experiment: in vivo. Particulars: serum of EAE mice; positive control drug, dose not given. How it is done: as §2
(§3) Experimental method: mice were anesthetized with pentobarbital sodium, blood sample was taken from abdominal aorta, stood at room temperature for 2 h, centrifuged at 3000 rpm for 20 min, and supernatant was taken, stored at −80° C. for use. The operation was performed strictly according to the steps of specification of ELISA kit. Optical density was measured with ELIASA at 450 nm. The corresponding contents of IL-1 and IL-6 were calculated with the measured OD values on standard curve.
On the technique in general: An ELISA detects its analyte on a solid surface through an enzyme-linked reagent.

A further experiment concerns IL-6. In words: Serum IL-6 content in EAE mice model (ELISA). To be noted: serum of EAE mice; positive control drug, dose not given. The experiment is classed as in vivo. How it is done:
as §2, §3

For experiment [5], the system named is experimental autoimmune encephalomyelitis (EAE) mice model. In words: Nervous function score in EAE mice model. The experiment is classed as in vivo, C57BL/6J mice. To be noted: peak of attack, positive control drug, dose not given. The protocol: as §2
Nervous function test method: the ethological changes of mice were observed by two experimenters every day using blind method. Scoring standard: 0 score, absence of symptom; 1 score, decrease of tail tension, evident slight gait awkward; 2 score, disappearance of tail tension, moderate gait abnormal, deficient in maintaining gesture; 3 score, limb strength weak; 4 score, limb paralysis; 5 score, near death or died.

Experiment [6] concerns myelin sheath of spinal cord in EAE model mice. In words: Myelinoclasis of spinal cord in EAE mice model (LFB staining). Particulars: day 29, positive control drug, dose not given. Type of experiment: in vivo. How it is done:
as §2
Experimental method: the mice were anesthetized with 10% chloral hydrate on the 29th day of experiment, fixed by perfusion of 4% paraformaldehyde, myeloid tissues were taken for making paraffin sections, section thickness 5 μm. Stained with LFB, observed under microscope, and scored according to the following standard: 0 score, absence of myelinoclasis; 1 score, one small range of myelinoclasis; 2 score, 2 or 3 small ranges of myelinoclasis; 3 score, 1 to 2 large ranges of myelinoclasis; 4 score, large ranges of myelinoclasis accumulatively existing in 20% or more of white matter regions.

In experiment [7] the test system is CNPase (marker protein of mature oligodendroglial cells). In words: CNPase content in spinal cord of EAE model mice (Western blot). The experiment is classed as in vivo. To be noted: positive control drug, dose not given. The protocol:
as §2
Experimental method: the mice were anesthetized and sacrificed, fresh spinal cord was taken on ice, total protein was extracted by clearage on ice, to prepare Western blot sample, added with CNPase primary antibody and incubated, added with corresponding secondary antibody, ECL colorated, Kodak film exposed. Pictures were analyzed with Image J software and standardized with actin.
A general note: Immunoblotting shows a protein as a band on a membrane.

On to `CC(=O)OCC(=O)[C@@]1(O)CC[C@H]2[C@@H]3CCC4=CC(=O)C=C[C@]4(C)[C@H]3C(=O)C[C@@]21C` [prednisone acetate], for which the “Nervous function damage score” value in [1] is 1.16 ± 1.21 score; in [5], 1.36 ± 0.62 score. For the same molecule, the Bodyweight is given as 20.52 ± 1.19 g in [2] and 198.5 ± 7.1 g in experiment [4]. Moreover, the “Inflammatory cell infiltration (HE staining score)” value in [3] amounted to 1.16 ± 0.12 score. Further, the 1L-1 content with IL-1 worked out at 0.114 ± 0.001 pg/mL. Moreover, the IL-6 content in the experiment on IL-6 was found to be 0.124 ± 0.002 pg/mL. Also, in [6], the “Myelinoclasis (LFB staining score)” value is on record as 0.81 ± 0.21 score. Further, in experiment [7], the “Oligodendroglial cells (CNPase/actin integration grey level)” value is listed as 1.18 ± 0.02.

(Values after patent publication US9233116B2, “Composition containing iridoids and uses thereof” (XUANWU HOSPITAL OF CAPITAL MEDICAL UNIVERSITY, priority 2010, dated 2016).)
